Results: BindingDB's records for patent US20250282798 (Medshine Discovery, 2025)

Biological target: Mitogen-activated protein kinase kinase kinase kinase 1 (Homo sapiens, UniProt Q92918)
Assay: Kinase Activity Assay
Description: The compound was diluted 50-fold into the kinase reaction buffer, and the mixture was shaken on a shaker for 20 minutes. The kinase was prepared with the enzyme reaction buffer. 2 μL of kinase was added to each well of a reaction plate. 1 μL of the diluted compound in the buffer was added to each well. The plate was sealed with a sealing film, centrifuged at 1000 g for 30 seconds, and placed at room temperature for 10 minutes. The mixed solution of ATP/MBP was prepared with the enzyme reaction buffer. 2 μL of the mixed solution of ATP/MBP was added to the reaction plate. The plate was sealed with a sealing film, and centrifuged at 1000 g for 30 seconds. The mixture in the plate was reacted at room temperature for 60 minutes. […] The plate was incubated at 25° C. for 40 min. […] The plate was incubated at 25° C. for 40 min. The RLU (relative luminescence unit) signal was read with a BMG microplate reader, and the signal intensity was used to characterize the activity of the kinase.

Sequence of Mitogen-activated protein kinase kinase kinase kinase 1 (Q92918 whole entry): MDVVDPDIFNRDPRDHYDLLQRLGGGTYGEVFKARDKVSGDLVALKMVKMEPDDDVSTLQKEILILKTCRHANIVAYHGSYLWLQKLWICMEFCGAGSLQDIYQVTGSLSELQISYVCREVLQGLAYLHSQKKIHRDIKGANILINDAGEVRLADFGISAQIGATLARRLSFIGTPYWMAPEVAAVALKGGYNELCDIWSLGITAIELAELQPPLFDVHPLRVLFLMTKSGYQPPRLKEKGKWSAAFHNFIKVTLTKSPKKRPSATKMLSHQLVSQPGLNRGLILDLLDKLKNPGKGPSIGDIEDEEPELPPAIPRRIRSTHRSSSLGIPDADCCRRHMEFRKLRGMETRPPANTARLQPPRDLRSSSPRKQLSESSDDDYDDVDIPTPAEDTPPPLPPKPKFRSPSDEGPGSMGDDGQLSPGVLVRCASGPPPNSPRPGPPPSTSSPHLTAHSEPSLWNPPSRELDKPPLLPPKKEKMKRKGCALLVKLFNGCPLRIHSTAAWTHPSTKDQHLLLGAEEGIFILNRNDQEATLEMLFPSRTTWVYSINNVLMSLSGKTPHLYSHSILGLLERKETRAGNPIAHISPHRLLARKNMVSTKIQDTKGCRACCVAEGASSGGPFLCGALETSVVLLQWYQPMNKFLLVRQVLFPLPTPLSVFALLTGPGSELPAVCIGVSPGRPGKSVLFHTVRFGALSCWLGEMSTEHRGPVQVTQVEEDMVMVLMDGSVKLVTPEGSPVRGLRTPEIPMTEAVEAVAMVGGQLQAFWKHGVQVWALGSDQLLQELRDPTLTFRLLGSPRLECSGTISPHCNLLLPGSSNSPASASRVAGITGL

Row | SMILES | IC50 [nM]
1 | Cn1ccc2c(-c3ccc(Nc4ccc5c(n4)CNC(=O)C4COCC54)c4c3CNC4=O)ccnc21 (configuration not stated) [US20250282798, Compound 23] | 0.02
2 | COc1cccc(F)c1-c1ccc(Nc2ccc(N3CCOCC3)c(CN(C)C)n2)c2c1CNC2=O [US20250282798, Compound 15] | 1.7
3 | CN1Cc2nc(Nc3ccc(-c4cnc5cc(F)ccn45)c4c3C(=O)NC4)ccc2C2COCC2C1 (configuration not stated) [US20250282798, Compound 17] | 1.3
4 | CN1Cc2nc(Nc3ccc(-c4ccnc5c4ccn5C)c4c3C(=O)NC4)ccc2N2CCOCC2C1 (configuration not stated) [US20250282798, Compound 25] | 0.2
5 | O=C1NCc2c(-c3cnc4cc(F)ccn34)ccc(Nc3ccc4c(n3)CNC(=O)C3COCC43)c21 (configuration not stated) [US20250282798, Compound 18] | 0.2
6 | Cn1ccc2c(-c3ncc(Nc4ccc5c(n4)OC[C@H]4COCCN54)c4c3CNC4=O)ccnc21 [US20250282798, Compound 20] | 0.3
7 | CN1Cc2nc(Nc3ccc(-c4cnc5cc(F)ccn45)c4c3C(=O)NC4)ccc2N2CCOCC2C1 (configuration not stated) [US20250282798, Compound 16] | 0.8
